Assay results published in patent US11771709B2, “ALK protein degradation agent and anti-tumor application thereof” (ShanghaiTech University, priority 2017, dated 2023).
Read-outs that look alike come from different tables or passages of the source.

Key:
Ba/F3 (EML4-ALK/L1196M) = target: T1, Ba/F3 (EML4-ALK/L1196M) (Homo sapiens, UniProt Q9UM73, L1196M, cells depend on it); test: Growth inhibition IC50 in Ba/F3 cells expressing EML4-ALK L1196M; format: cell-based
T1 construct: Q9HC35 (Echinoderm microtubule-associated protein-like 4)
Method: (§3) Cells were seeded at specific density in 96 well plates one day before treatment. […] Viable cells were measured via CCK8 reagent and IC50s were calculated via Prism Graphad. Experiments were repeated at least three times.

Ba/F3 (EML4-ALK/C1156Y) = target: T2, Ba/F3 (EML4-ALK/C1156Y) (Homo sapiens, UniProt Q9UM73, C1156Y, cells depend on it); test: Growth inhibition IC50 in Ba/F3 cells expressing EML4-ALK C1156Y; format: cell-based
T2 construct: Q9HC35 (Echinoderm microtubule-associated protein-like 4)
Method: as §3

[1] = tested on: PC9Brc1 (EGFR, exon 19 del+T790M) cells; test: Growth inhibition IC50 in EGFR mutant lung cancer PC9Brc1 cells; format: cell-based; conditions: CTB, n ≥ 3, read-out: Half Inhibitory Concentration (IC50) Mean
Method: (§4) SR (NPM-ALK) and NCI-H2228 (EML4-ALK, V3) cells were purchased from ATCC. […] All Cells were cultured in RPMI1640 medium with 10% FBS and Penicillin-Streptomycin in 37° C. incubator with 5% CO2.
as §3

Ba/F3 (EML4-ALK/WT) = target: T3, Ba/F3 (EML4-ALK/WT) (Homo sapiens, UniProt Q9UM73); test: Growth inhibition IC50 in Ba/F3 cells expressing EML4-ALK wild type; format: cell-based
T3 construct: Q9HC35 (Echinoderm microtubule-associated protein-like 4)
Method: as §3

MOLM13 cells (FLT3-ITD) = test: Growth inhibition IC50 in FLT3-ITD AML cell line MOLM13; format: cell-based; conditions: Homo sapiens, MOLM-13, MOLM13 cells
Method: as §3

[2] = tested on: U118MG cells (FIG-ROS1 gene fusion); test: Growth inhibition IC50 in ROS1 mutant glioblastoma cell line U118MG (72 hours); format: cell-based; conditions: Homo sapiens, U-118-MG, U118MG cells, 72 hours
ALK protein in SR cells = target: T4, ALK protein in SR cells (Homo sapiens, UniProt Q9UM73); test: Block of ALK degradation by proteosome inhibitors MG132 and MLN4924 in SR cells; format: cell-based
T4 construct: NPM (nucleophosmin, NPM1, P06748) fusion partner; host or cells: SR (ALCL) cells; the other entry of the earlier key: NPM1 (P06748, Nucleophosmin)
From the text: To further validate the degradation effect act through proteosome mediated pathway, we also treated cells with two different proteosome inhibitors MG132 and MLN4924 to block protein degradation (FIG. 16).

PC9 cells = test: Colony formation assay in PC9 cells; format: cell-based
Method: (§1) Cell were digested to become single cell suspension. Cells were seeded in the intensity of 250 cells/well in 12 well plate. Treated cells at the concentration of 100, 250, 500 nM. Fixed cells 2-3 weeks after and stained cells with crystyl violate.
(§2) ALK PROTAD compound SIAIS1210117 and its negative control epimer SIAIS219050 were used.

H2228 cells (EML4-ALK) = test: Colony formation assay in H2228 cells; format: cell-based; conditions: about 2 weeks
Method: as §1
In order to see the effect of ALK PROTAD compounds on the colony formation ability of cancer cells, EML4-ALK mutant lung cancer cells H2228 were firstly seeded in 12 well plate at the density of 200 cells per well. Cells were treated with different ALK PROTAD compounds at different concentration for about 2 weeks.

[3] = target: T5, ALK protein in SR (NPM-ALK) cells (Homo sapiens, UniProt Q9UM73); test: Western blot of ALK protein level (degradation, DC50), ALK phosphorylation and downstream signaling in SR cells; format: cell-based; conditions: for DC50: ALK protein degradation in SR cells; for ALK protein degradation within a time course: 100 nM, 4 hours (SIAIS1210117), up to 24 hours (epimer)
T5 construct: NPM (nucleophosmin, NPM1, P06748) fusion partner; host or cells: SR (ALCL) cells; the other entry of the earlier key: NPM1 (P06748, Nucleophosmin)
Method: Cancer cells were seeded in 1 ml RPMI1640 medium in 24-well plate at the density of 3×10^5 or 1.5×10^5 cells/ml. […] Then cells were washed twice with PBS and lyzed in RIPA lysis buffer with Halt Proteinase and Phosphotase inhibitor. Equal amount of proteins were loaded to run SDS-PAGE gels after denature. The gels were blotted to PVDF membrane. After incubating with first and secondary antibodies, the images were developed using SuperSignal West Pico Chemiluminescent Substrate.
DC50 (concentration required to degrade protein by half) were calculated based on the intensity from western blot, and data were analyzed via Prism GraphPad with non-linear regression.

SR (NPM-ALK) cells = test: Growth inhibition IC50 in ALCL SR cells (CCK8/WST, 72 hours); format: cell-based; conditions: 72 h, SR cells, WST; Brigatinib-based PROTAD molecules (Table 3)
Method: as §4, §3

PC9Brc1 cells = test: Colony formation assay in PC9Brc1 cells; format: cell-based; conditions: PC9 Brc1 cells
Method: as §1, §2

[4] = tested on: SW48 cell line (EGFR G719S); test: Growth inhibition IC50 in EGFR G719S colorectal cancer cell line SW48; format: cell-based; conditions: Homo sapiens, CTG, n = 2, read-out: Half Inhibitory Concentration (IC50) Mean
Method: as §3

[5] = tested on: NCI-H2228 (EML4-ALK, V3) cells; test: Growth inhibition IC50 in lung adenocarcinoma H2228 cells (WST); format: cell-based; conditions: Homo sapiens, WST (Table 3)
From the text: Experiments were repeated at least three times.
Besides above, we also tested the dosage-dependent effects on the growth inhibition in H2228 cells. […] (Table 3).

[6] = tested on: PC9 (EGFR, exon 19 del) cells; test: Growth inhibition IC50 in EGFR mutant lung adenocarcinoma PC9 cells; format: cell-based; conditions: Homo sapiens, PC-9; PC9 cells, CTB, n ≥ 3; read-out: Half Inhibitory Concentration (IC50) Mean
Method: as §4, §3

[7] = tested on: ALK protein in H2228 (EML4-ALK) cells; test: Western blot of ALK protein level, ALK phosphorylation and downstream signaling in H2228 cells; format: cell-based
Method: Cancer cells were seeded in 1 ml RPMI1640 medium in 24-well plate at the density of 3×10^5 or 1.5×10^5 cells/ml. The next day cells were treated with different concentration of drugs for 16 hours. Then cells were washed twice with PBS and lyzed in RIPA lysis buffer with Halt Proteinase and Phosphotase inhibitor. Equal amount of proteins were loaded to run SDS-PAGE gels after denature. The gels were blotted to PVDF membrane. After incubating with first and secondary antibodies, the images were developed using SuperSignal West Pico Chemiluminescent Substrate.
The effect of Brigtinib based PROTAD molecules on the ALK protein total level were studied by western blot in ALCL SR (NPM-ALK) cell line and lung adenocarcinoma cell line H2228 and H3122 (EML4-ALK).
The effects of compounds SIAIS164008 and SIAIS164018 of the present invention on the activation of ALK mediated signaling pathways were also studied in SR cells and H2228 cells. […] The overall effect of compound of SIAIS164018 was better than that of SIAIS164008.

[8] = Pharmacokinetics (PK) study in SD rat (IV, IP, PO; LC-MS/MS); format: in vivo; conditions: Sprague-Dawley, serum
Method: SD rat were used to study the PK of ALK PROTAD compounds. ALK PROTAD compounds SIAIS164008, SIAIS164018, SIAIS164023 and SIAIS151118 were administrated into SD rat via three different routes: IV (Intravenous Injection), IP (Intraperitoneal Injection) and PO ([…]). Blood samples at different sampling time points up to 24 hours post dosing were collected from each animal and analyzed with LC-MS/MS to calculate the PK for each chemical.

[9] = target: T6, ALK protein in H3122 (EML4-ALK) cells (Homo sapiens, UniProt Q9UM73); test: Western blot of ALK protein level (degradation, DC50), ALK phosphorylation and downstream signaling in H3122 cells; format: cell-based
T6 construct: EML4 (Echinoderm microtubule-associated protein-like 4, Q9HC35) fusion partner, variant 1; host or cells: NCI-H3122 lung adenocarcinoma cells; the other entry of the earlier key: EML4 (Q9HC35, Echinoderm microtubule-associated protein-like 4)

[10] = n = 2, reagent CTG, read-out: Half Inhibitory Concentration (IC50) Mean

| Structure (SMILES) | GI50 (Ba/F3 (EML4-ALK/L1196M)) [nM] | GI50 (Ba/F3 (EML4-ALK/C1156Y)) [nM] | IC50 [1] [nM] | GI50 (Ba/F3 (EML4-ALK/WT)) [nM] | IC50 (MOLM13 cells (FLT3-ITD); [10]) [nM] | IC50 [2, 10] [nM] | reduction of ALK protein level and its block by MG132 and MLN4924 (ALK protein in SR cells) | colony formation (H2228 cells (EML4-ALK)) | DC50 [3] [nM] | ALK protein degradation within a time course ([3]; SR cells) | IC50 (SR (NPM-ALK) cells) [nM] | colony formation (PC9Brc1 cells) | IC50 [4] [nM] | IC50 [5] [nM] | IC50 [6] [nM] | also measured |
| --- | --- | --- | --- | --- | --- | --- | --- | --- | --- | --- | --- | --- | --- | --- | --- | --- |
| COc1cc(N2CCC(NC(=O)CCCCCCCCCC(=O)N[C@H](C(=O)N3C[C@H](O)C[C@H]3C(=O)NCc3ccc(-c4scnc4C)cc3)C(C)(C)C)CC2)ccc1Nc1ncc(Cl)c(Nc2ccccc2P(C)(C)=O)n1 [SIAIS1210117, N1-(1-(4-((5-chloro-4-((2-(dimethylphosphoryl)phenyl)amino)pyrimidin-2-yl)amino)-3-methoxyphenyl)piperidin-4-yl)-N11-((S)-1-((2S,4R)-4-hydroxy-2-((4-(4-methylthiazol-5-yl)benzyl)carbamoyl)pyrrolidin-1-yl)-3,3-dimethyl-1-oxobutan-2-yl)undecanediamide] | 170 | 120 | 460 | 123 | 345 | 920 | able to be blocked | dramatically inhibited | 0.5 to 10 | significant ALK protein degradation | 1.7 ± 1 | able to inhibit | 1360 | 30.3 | 106 | IC50 ([2]; read-out: IC50): ~920 nM; colony formation (PC9 cells): able to inhibit |
| COc1cc(N2CCC(NC(=O)CCCCCCCCCC(=O)N[C@H](C(=O)N3C[C@@H](O)C[C@H]3C(=O)NCc3ccc(-c4scnc4C)cc3)C(C)(C)C)CC2)ccc1Nc1ncc(Cl)c(Nc2ccccc2P(C)(C)=O)n1 [SIAIS219050, N1-(1-(4-((5-chloro-4-((2-(dimethylphosphoryl)phenyl)amino)pyrimidin-2-yl)amino)-3-methoxyphenyl)piperidin-4-yl)-N11-((S)-1-((2S,4S)-4-hydroxy-2-((4-(4-methylthiazol-5-yl)benzyl)carbamoyl)pyrrolidin-1-yl)-3,3-dimethyl-1-oxobutan-2-yl)undecanediamide] |  |  |  |  |  |  | did not have such effect |  |  | did not induce degradation of ALK protein |  | could not |  |  |  |  |
| COc1cc(N2CCC(N3CCN(C(=O)CNc4cccc5c4C(=O)N(C4CCC(=O)NC4=O)C5=O)CC3)CC2)ccc1Nc1ncc(Cl)c(Nc2ccccc2P(C)(C)=O)n1 (stereo not shown) [SIAIS164018, 4-((2-(4-(1-(4-((5-chloro-4-((2-(dimethylphosphoryl)phenyl)amino)pyrimidin-2-yl)amino)-3-methoxyphenyl)piperidin-4-yl)piperazin-1-yl)-2-oxoethyl)amino)-2-(2,6-dioxopiperidin-3-yl)isoindoline-1,3-dione] | 57.4 | 42.7 | 900 | 30.9 | 79 | 16900 | able to be blocked | dramatically inhibited | 0.5 to 1 |  | 2 ± 1.4 |  | 2760 | 17.9 | 150 | phosphorylation of ALK protein and activation of PI3K/AKT pathway [7]: inhibited; IC50 (MOLM13 cells (FLT3-ITD); read-out: IC50): 79 nM; concentration at which ALK proteins were degraded ([3]; SR cells, western blot): less than 1 nM; concentration inhibiting the phosphorylation of ALK proteins ([3]; SR cells, western blot): 0.1 nM; downstream signaling pathway (PI3K/AKT, MEK/ERK and STAT3) ([3]; SR cells, western blot): significantly inhibited; ALK protein degradation ([3]; SR cells, western blot, 16 hours, up to 500 nM): effectively degrade ALK proteins at nano mole concentration; bioavailability ([8]; IP, 2 mg/kg): 157%; half-life ([8]; IP, 2 mg/kg, read-out: serum half-life (converted)): 3.65 h; Tmax ([8]; IP, 2 mg/kg, read-out: time to maximal serum peak level (Tmax)): ~2.67 h; clearance ([8]; IV, single dose 2 mg/kg, read-out: clearance rate, mean value): ~22.6 mL/min/kg; half-life ([8]; IV, single dose 2 mg/kg, read-out: serum clearance half-life (converted)): ~4.65 h; bioavailability ([8]; PO, 10 mg/kg): 18.4%; Tmax ([8]; PO, 10 mg/kg, read-out: Tmax): 2 h; half-life ([8]; PO, 10 mg/kg, read-out: serum half-life (converted)): 7.09 h; DC50 ([9]; ALK protein degradation in H3122 cells): 1 to 10 nM; ALK protein level / degradation ([9]; H3122 cells, western blot, up to 500 nM): a similar effects was observed |
